Laboratory results taken from patent publication US7556938B1, “Nucleic acids encoding potassium channel interactors” (Millennium Pharmaceuticals, Inc., priority 1998, dated 2009).

Assays:
Kv4.2 = molecular target: T1, Kv4.2 (Rattus norvegicus, UniProt Q63881); experiment: AA modulation of Kv4.2 current (Kv4.2 expressed alone) in CHO cells; type: cell-based; settings: Kv4.2 alone, 10 μM AA
T1 construct: expressed in transfected cells; host or cells: CHO cells, transient transfection with GFP co-transfected
T1 sequence (Q63881 1-630): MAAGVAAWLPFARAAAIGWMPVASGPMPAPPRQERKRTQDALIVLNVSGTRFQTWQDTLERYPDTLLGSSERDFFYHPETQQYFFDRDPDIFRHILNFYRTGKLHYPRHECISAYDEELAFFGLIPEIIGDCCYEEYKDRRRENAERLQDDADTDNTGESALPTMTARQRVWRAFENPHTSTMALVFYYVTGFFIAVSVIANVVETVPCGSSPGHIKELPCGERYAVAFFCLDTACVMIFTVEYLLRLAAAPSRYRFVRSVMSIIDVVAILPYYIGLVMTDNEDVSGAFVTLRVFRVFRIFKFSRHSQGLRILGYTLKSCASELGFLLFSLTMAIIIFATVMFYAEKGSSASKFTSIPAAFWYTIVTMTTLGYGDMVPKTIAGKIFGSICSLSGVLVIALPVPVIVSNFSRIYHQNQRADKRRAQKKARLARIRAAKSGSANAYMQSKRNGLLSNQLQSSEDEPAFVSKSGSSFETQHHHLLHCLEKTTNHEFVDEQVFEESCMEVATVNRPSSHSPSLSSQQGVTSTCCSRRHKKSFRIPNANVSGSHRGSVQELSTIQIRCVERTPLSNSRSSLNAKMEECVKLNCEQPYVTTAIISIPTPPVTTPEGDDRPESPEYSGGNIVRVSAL
Method: HEK 293 and CHO cells were used for recordings 1-3 days after a transient transfection. Whole-cell currents were recorded from cells expressing GFP, identified by their green fluorescence. […] After Gigaseal and ruptured whole-cell configuration access, resistance was less than 10 MOhms. Whole-cell bath solutions were made from a 10× Hank's balanced salt solution (GibcoBRL) with the following final concentration (in mM): 138 NaCl, 5.4 KCl, 1.3 MgCl2, 1.3 CaCl2, 5.5 D-Glukos and 10 HEPES, pH 7.4. The intracellular electrode solution consisted of (in mM) 140 KCl, 10 HEPES, 10 EGTA, 0.5 MgCl2, pH 7.3. All chemicals were from Sigma (St. Louis, Mo.) or Fisher Scientific (Houston, Tex.). Membrane currents were recorded using a EPC9 patch-clamp amplifier (HEKA, Germany). Data were analyzed using Matlab (Natick, Ma), and leak subtracted if necessary. All experiments were done at room temperature. […]

[1] = molecular target: T2, interaction between N-terminal domain of Kv4.3 and KChIP1 (Rattus norvegicus, UniProt Q62897+Q8R426); experiment: Biosensor (Biacore) in vitro binding of KChIP1 to GST-Kv4.3N with and without arachidonic acid; settings: 10 μM arachidonic acid, 1 μM KChIP1
T2 construct: The intracellular N-terminal domain of Kv4.3 was expressed as a GST fusion protein (GST-Kv4.3N); GST (N, cleaved yes); made in house; host or cells: E. coli
T2 sequence (Q62897 1-182 limits assumed): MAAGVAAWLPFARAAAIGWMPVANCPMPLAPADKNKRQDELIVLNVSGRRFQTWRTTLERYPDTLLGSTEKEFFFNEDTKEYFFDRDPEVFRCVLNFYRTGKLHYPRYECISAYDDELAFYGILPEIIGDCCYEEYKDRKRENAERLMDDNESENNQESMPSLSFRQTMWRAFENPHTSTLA
T2 sequence (Q8R426 1-216 isoform Q8R426-2): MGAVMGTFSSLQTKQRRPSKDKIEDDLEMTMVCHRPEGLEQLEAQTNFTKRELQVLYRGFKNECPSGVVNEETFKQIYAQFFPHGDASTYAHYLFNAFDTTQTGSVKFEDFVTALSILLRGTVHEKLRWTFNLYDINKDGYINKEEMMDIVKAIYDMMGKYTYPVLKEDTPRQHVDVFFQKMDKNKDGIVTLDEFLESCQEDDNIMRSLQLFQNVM
Excerpt: The N-terminal domain of rat Kv4.3 was expressed as a GST fusion (GST-Kv4.3N) and purified from E. coli essentially following protocols provided by Amersham Pharmacia Biotech (Piscataway, N.J.). Recombinant rat KChIP1 protein was first expressed and purified as a GST-fusion, then the GST moiety was cleaved using PreScission protease (Amersham Pharmacia Biotech) to give rise to the free KChIP1 protein. Both GST-Kv4.3N and KChIP proteins were >95% pure as estimated by coomassie stain of denaturing gels. In vitro binding assays were performed using a Biacore 3000 from Biacore AB in Uppsala, Sweden. The experiments were performed in phosphate buffered saline (PBS), pH 7.4, with 1 mM CaCl2 and 0.05% polysorbate P-20. Anti-GST antibody (Biacore AB) was coupled to 3 flowcells of a CM-5 chip (Biacore AB) at a level of 2000 resonance units (RUs) using amine coupling. […]
To test the hypothesis that arachidonic acid acts by interfering with the binding between Kv4 and KChIPs, the surface plasmon resonance measurement (Biosensor) was first used to monitor the association and dissociation phases of Kv4-KChIP interaction in the presence and absence of arachidonic acid. The intracellular N-terminal domain of Kv4.3 was expressed as a GST fusion protein (GST-Kv4.3N) and immobilized to the surface of a Biosensor chip. […]

Peak amplitude (pA ± SEM) (Kv4.2): 336 ± 82 pA
Inactivation time constant (ms ± SEM) (Kv4.2; listed as AA): 32 ± 2 ms
SMILES: CCCCC/C=C\C/C=C\C/C=C\C/C=C\CCCC(=O)O [arachidonic acid]
effect on association and dissociation phase of KChIP1 binding to GST-Kv4.3N [1]: a qualitative difference aws not observed
